Measurements as given in patent US20240261319A1, “ANTI-FUNGAL COMPOSITION DERIVED FROM HESPERALOE” (Kimberly-Clark Worldwide, Inc., priority 2021, published 2024).
Converted amounts (≈) assume the structure as drawn.

System: Candida albicans
Assay: Minimum inhibitory concentration (MIC) testing, two-fold broth dilution in YPD, OD620
Assay type: cell-based
Details: C. albicans (ATCC) in YPD broth, two-fold dilutions starting at 200, 30° C., 18-24 hours
Method: Candida albicans, was purchased from ATCC. Thirty-five samples derived from KC Hesperaloe funifera, crude extracts and selected fractions (Table 1) were screened for the inhibition of growth of candida.
Minimum inhibitory concentration (MIC) testing was performed. Two-fold dilutions of sample prepared in C. albicans growth medium (Yeast Peptone Dextrose, YPD) broth, starting at 200 µg/mL. Then inoculum added and incubated at 30° C. for 18-24 hours, and OD620 was determined. T-test was used to determine statistically significant decreases in growth ([…]). Controls included Ketoconazole (50 µg/mL, Keto50), Neg (media with DMSO only, no inoculum), Pos (media with DMSO and inoculum), and YPD (broth only). In wells with decreased growth, wells were mixed by pipetting, and […] samples were plated on YPD agar to determine whether viable C. albicans were present, as an estimation of minimum fungicidal concentration (MFC).

MIC: 25 mg/mL (≈ 47 mM)
Compound: CC(=O)N1CCN(c2ccc(OCC3COC(Cn4ccnc4)(c4ccc(Cl)cc4Cl)O3)cc2)CC1 (stereo not shown) [Ketoconazole]
